Earlier results, collected in patent US11654127B2, “Composition for use in the prevention and/or treatment of Oncologic Treatment Induced Orogastrointestinal Mucositis” (Mucosa Innovations, S.L., priority 2017, dated 2023).

Tested on: OTIOM
Settings: saliva stimulant

SMILES: CC[C@@H]1C(=O)OC[C@@H]1Cc1cncn1C [pilocarpine]
- effect in preventing or treating OTIOM: no beneficial effect
